Structures can show the parent of a compound that is named as a salt.

One series deals with parent strain (SAWy518).
Conditions: not given
`CCC(Cc1c(I)cc(I)c(N)c1I)C(=O)O` (centres unmarked) [IOPANIC ACID]: the Offscreen_18hr stood at 0.6491, the Offscreen_24hr came out at 0.7855 and the Offscreen_42hr is listed as 0.8261.
`Oc1ccc2ccccc2c1SSc1c(O)ccc2ccccc12` [IPA-3]: the Offscreen_18hr turned out to be 0.0457, the Offscreen_24hr turned out to be 0.0481 and the Offscreen_42hr is 0.1263.
For `CCC(C)n1ncn(-c2ccc(N3CCN(c4ccc(OC[C@H]5CO[C@](Cn6cncn6)(c6ccc(Cl)cc6Cl)O5)cc4)CC3)cc2)c1=O.Cl.Cl` (some centres unmarked) [ITRACONAZOLE HYDROCHLORIDE], in that order: 0.8063, 0.8859 and 0.9404.
For `CC(=O)[C@]1(O)Cc2c(O)c3c(c(O)c2[C@@H](O[C@H]2C[C@H](N)[C@H](O)[C@H](C)O2)C1)C(=O)c1ccccc1C3=O` [Idarubicin HCl] the same measures were 0.1605, 0.1891 and 0.402.
As to `CC(=O)[C@]1(O)Cc2c(O)c3c(c(O)c2[C@@H](O[C@H]2C[C@H](N)[C@H](O)[C@H](C)O2)C1)C(=O)c1ccccc1C3=O` [Idarubicin], the Offscreen_18hr is listed as 0.154, the Offscreen_24hr is listed as 0.1842 and the Offscreen_42hr worked out at 0.3602.
As for `O=C1Nc2ccccc2/C1=C1/Nc2ccccc2/C1=N\O` [Indirubin-3'-oxime], the Offscreen_18hr is listed as 0.6559, the Offscreen_24hr was determined as 0.8248 and the Offscreen_42hr worked out at 0.9006.
As to `CC(C)NNC(=O)c1ccncc1.O=P(O)(O)O` [Iproniazid phosphate, reference compound], the Offtarget result was “NO” and the Offtarget_sub amounted to 0.4143.
Turning to `CCC(C)n1ncn(-c2ccc(N3CCN(c4ccc(OC[C@H]5CO[C@](Cn6cncn6)(c6ccc(Cl)cc6Cl)O5)cc4)CC3)cc2)c1=O` (some centres unmarked) [Itraconazole (Sporanox)], the Offscreen_18hr is 0.7339, the Offscreen_24hr was found to be 0.8546 and the Offscreen_42hr is 0.8998.
For `O=C(O)/C=C/C=C/c1ccccc1` [JUAREZIC ACID] the same measures were 0.6813, 0.7831 and 0.827.
For `COc1cc(C)c2c(=O)c(-c3ccccc3)coc2c1` [METHOXYVONE], the Offscreen_18hr was determined as 0.7685, the Offscreen_24hr is reported as 0.8867 and the Offscreen_42hr came to 0.9442.
Take `Cc1cc(C(C)(C)CC(C)(C)C)ccc1OCCOCC[N+](C)(C)Cc1ccccc1.[Cl-]` [METHYLBENZETHONIUM CHLORIDE]: the Offscreen_18hr was 0.7745, the Offscreen_24hr is given as 0.875 and the Offscreen_42hr is recorded as 0.932.
Consider `CC[N+](CC)(CC)CCOc1ccc(/C=C/c2ccccc2)cc1` [MG 624], for which the Offscreen_18hr is on record as 0.5585, the Offscreen_24hr was 0.7684 and the Offscreen_42hr turned out to be 0.9127.
For `O=C(O)[C@]1(Cc2cccc(Nc3nccs3)n2)CC[C@@H](Oc2cccc(Cl)c2F)CC1` [MK-5108 (VX-689)], in that order: 0.6785, 0.8599 and 0.9444.
Regarding `Cl.O=S(=O)(c1cccc2c(I)cccc12)N1CCCNCC1` [ML-7, reference compound], the Offtarget result is “NO” and the Offtarget_sub was 0.3788.
Take `O=[N+]([O-])/C=C/c1ccc2c(c1)OCO2` [MNS]: the Offscreen_18hr amounted to 0.2427, the Offscreen_24hr turned out to be 0.4675 and the Offscreen_42hr is on record as 0.9062.
For `COc1c(C)c2c(c(O)c1C/C=C(\C)CCC(=O)OCCN1CCOCC1)C(=O)OC2` [MYCOPHENOLATE MOFETIL] the same measures were 0.5798, 0.792 and 0.9179.
For `COc1c(C)c2c(c(O)c1C/C=C(\C)CCC(=O)O)C(=O)OC2` [MYCOPHENOLIC ACID], in that order: 0.6454, 0.8395 and 0.9254.
For `CN(C)c1ccc2nc3ccc(=[N+](C)C)cc-3sc2c1.O.O.O.[Cl-]` [Methylene Blue], in that order: 0.8664, 0.9565 and 1.0182.
Turning to `CCN(CC)C(=O)[C@]1(c2ccccc2)C[C@@H]1CN.Cl` [Milnacipran hydrochloride], the Offscreen_18hr came out at 0.8463, the Offscreen_24hr amounted to 0.9181 and the Offscreen_42hr came to 0.9801.
Turning to `COc1c(C)c2c(c(O)c1C/C=C(\C)CCC(=O)O)C(=O)OC2` [Mycophenolic (Mycophenolate)], the Offscreen_18hr was 0.6524, the Offscreen_24hr was found to be 0.8532 and the Offscreen_42hr was 0.951.
With `O=[N+]([O-])c1ccc(O)c2ncccc12` [NITROXOLINE], the Offscreen_18hr came to 0.0416, the Offscreen_24hr was determined as 0.0414 and the Offscreen_42hr is 0.0729.
For `CC(Cc1ccc(O)c(O)c1)C(C)Cc1ccc(O)c(O)c1` (centres unmarked) [Nordihydroguaiaretic acid, reference compound], the OffScreen_percentage is 101.227 percentage, the Offscreen_18hr was found to be 0.8169, the Offscreen_24hr was found to be 0.9084 and the Offscreen_42hr stood at 0.9699. Further, the Read_percentage amounted to 101.227 percentage.
On to `NCC(=O)Nc1ccc(-n2nc(C(F)(F)F)cc2-c2ccc3c(ccc4ccccc43)c2)cc1` [OSU-03012 (AR-12)], for which the Offscreen_18hr was determined as 0.0821, the Offscreen_24hr is recorded as 0.1608 and the Offscreen_42hr stood at 0.9195.
As for `O=C(/C=C/c1ccc(O)c(O)c1)OCCc1ccccc1` [PHENETHYL CAFFEATE (CAPE)], the Offscreen_18hr came to 0.3307, the Offscreen_24hr was determined as 0.5133 and the Offscreen_42hr came out at 0.8223.
For `O=C1c2ccccc2C(=O)c2c(O)c(O)cc(O)c21` [PURPURIN] the same measures were 0.5082, 0.6741 and 0.7778.
With `CCCc1c(-c2ccc(O)cc2)nn(-c2ccc(O)cc2)c1-c1ccc(O)cc1` [Propylpyrazole triol], the Read_percentage is 98.9963 percentage.
Consider `CO[C@H]1C[C@@H]2CC[C@@H](C)[C@@](O)(O2)C(=O)C(=O)N2CCCC[C@H]2C(=O)O[C@H]([C@H](C)C[C@@H]2CC[C@@H](O)[C@H](OC)C2)CC(=O)[C@H](C)/C=C(\C)[C@@H](O)[C@@H](OC)C(=O)[C@H](C)C[C@H](C)/C=C/C=C/C=C/1C` [Rapamycin], for which the Offscreen_18hr is 0.0498, the Offscreen_24hr was determined as 0.0505 and the Offscreen_42hr is 0.0758.
`Nc1ccc(-c2nc3ccc(-c4nc5cc(N)ccc5[nH]4)cc3[nH]2)cc1` [Ro 90-7501]: the Offscreen_18hr came to 0.6647, the Offscreen_24hr is recorded as 0.8739 and the Offscreen_42hr was determined as 0.9612.
As for `CS(=O)(=O)c1ccc(C2=C(c3ccccc3)C(=O)OC2)cc1` [Rofecoxib, reference compound], the OffScreen_percentage stood at 103.916 percentage, the Offscreen_18hr was 0.8386, the Offscreen_24hr was determined as 0.9205 and the Offscreen_42hr is listed as 0.975. Also, the Read_percentage was 103.916.
Take `N.N.N.N.N.N.N.N.N.N.N.N.N.N.[Cl-].[Cl-].[Cl-].[Cl-].[Cl-].[Cl-].[O-2].[O-2].[Ru+3].[Ru+3].[Ru+4]` [Ruthenium red]: the Offscreen_18hr is on record as 0.6166, the Offscreen_24hr was 0.8198 and the Offscreen_42hr is 0.9382.
For `N#CC[C@@H](C1CCCC1)n1cc(-c2ncnc3[nH]ccc23)cn1` [S-Ruxolitinib (INCB018424)], the Offscreen_18hr turned out to be 0.6167, the Offscreen_24hr was 0.8199 and the Offscreen_42hr stood at 0.9411.
For `CC[C@@H](C(=O)[C@@H](C)[C@@H](O)[C@H](C)[C@@H]1O[C@@H]([C@@H](CC)C(=O)[O-])CC[C@@H]1C)[C@H]1OC2(C=C[C@@H](O)[C@]3(CC[C@@](C)([C@H]4CC[C@](O)(CC)[C@H](C)O4)O3)O2)[C@H](C)C[C@@H]1C.[Na+]` (some centres unmarked) [SALINOMYCIN, SODIUM] the same measures were 0.1472, 0.2295 and 0.8421.
`NS(=O)(=O)c1ccc(-n2nc(C(F)(F)F)cc2-c2ccc(Cl)cc2)cc1` [SC-236, reference compound]: the Offtarget result is “NO” and the Offtarget_sub came out at 0.2541.
In the case of `CO[C@H]1C[C@@H]2CC[C@@H](C)[C@@](O)(O2)C(=O)C(=O)N2CCCC[C@H]2C(=O)O[C@H]([C@H](C)C[C@@H]2CC[C@@H](O)[C@H](OC)C2)CC(=O)[C@H](C)/C=C(\C)[C@@H](O)[C@@H](OC)C(=O)[C@H](C)C[C@H](C)/C=C/C=C/C=C/1C` [SIROLIMUS], the Offscreen_18hr was determined as 0.341, the Offscreen_24hr came to 0.5452 and the Offscreen_42hr turned out to be 0.8609.
Regarding `Oc1ccc(Nc2nc(-c3ccc(Cl)cc3)cs2)cc1` [SKI II], the Offscreen_18hr is on record as 0.4105, the Offscreen_24hr worked out at 0.6287 and the Offscreen_42hr is recorded as 0.8658.
Take `CC[C@H](C(=O)[C@H](C)[C@@H](O)[C@@H](C)[C@@H]1O[C@@H]([C@@H](CC)C(=O)O)CC[C@H]1C)[C@H]1O[C@]2(C=C[C@@H](O)[C@]3(CC[C@@](C)([C@H]4CC[C@](O)(CC)[C@H](C)O4)O3)O2)[C@H](C)C[C@H]1C` [Salinomycin (Procoxacin)]: the Offscreen_18hr is listed as 0.8013, the Offscreen_24hr came to 0.892 and the Offscreen_42hr is reported as 0.9461.

Staying with this series, now noted: parent strain growth reading, 18 hr.
With `CN(C)c1ccc2nc3ccc(=[N+](C)C)cc-3sc2c1` [Methylene Blue trihydrate], the Offscreen_18hr came out at 0.8664.

Still in this series, the particulars now being: parent strain growth reading, 24 hr.
As to `CN(C)c1ccc2nc3ccc(=[N+](C)C)cc-3sc2c1` [Methylene Blue trihydrate], the Offscreen_24hr is 0.9565.

The same series, now with this note: parent strain growth reading, 42 hr.
Consider `CN(C)c1ccc2nc3ccc(=[N+](C)C)cc-3sc2c1` [Methylene Blue trihydrate], for which the Offscreen_42hr was 1.0182.

(Values after publication PMC11637378, “Optogenetic screening of MCT1 activity implicates a cluster of non-steroidal anti-inflammatory drugs (NSAIDs) as inhibitors of lactate transport” (PLOS ONE, 2024).)
